The text below walks through data of patent US8557858B2, “(E)-N-(2-amino-phenyl)-3-{1-[4-(l-methyl-1H-pyrazol-4-yl)-benzenesulfonyl]-1H-pyrrol-3-yl}-acrylamide salts” (4SC AG, priority 2008, dated 2013).

What all share (assay type): physicochemical
Conditions in all cases: compared to the known hydrochloride salt

A short description of one data set: Stability of the salts.
Another data set is described as follows: Solubility of the salt.
Data set [1] can be described thus: Dissolution behavior / dissolution velocity of the salts.

For `Cc1ccc(S(=O)(=O)O)cc1.Cn1cc(-c2ccc(S(=O)(=O)n3ccc(/C=C/C(=O)Nc4ccccc4N)c3)cc2)cn1` [toluenesulfonate salt, (E)-N-(2-Amino-phenyl)-3-{1-[4-(1-methyl-1H-pyrazol-4-yl)-benzenesulfonyl]-H-pyrrol-3-yl}-acrylamide toluene-4-sulfonate], the stability result in the data set “Stability of the salts” was “enhanced”. Moreover, the solubility result in the data set “Solubility of the salt” is “high”. Further, the dissolution velocity result in data set [1] was “particularly high”.
